Experimental data from patent US4200645A, “Pyrrole derivatives” (Beecham Group Limited, priority 1977, dated 1980).
Where two headings read alike, the source gives them in different places.

How the values were obtained:
[1] = J. Pharmacol. Exptl. Therap. 1973, 185, 127-138; cited from earlier work
stomachs = assay: gastric erosion test after oral dosing; assay type: in vivo, rats; conditions: for No. of Animals Showing Erosions: groups of 10 rats, 4 hour contact time
Protocol: b. Groups of 10 rats were starved overnight and then dosed orally with the test compound suspended in 0.7% methylcellulose. After a 4 hour contact time the animals were killed and the stomachs removed, inflated with 0.9% saline, cut open after 30 minutes and examined for erosions. The following results, expressed as the number of animals in each group showing damage, were obtained: […]

[2] = test system: carrageenin induced oedema; assay: carrageenin induced oedema test for anti-inflammatory activity; assay type: in vivo; conditions: Rattus norvegicus; per oral in rats; read-out: dose at which active (anti-inflammatory)
Protocol: c. When tested on a conventional carrageenin induced oedema test foranti-inflammatory activity, the compound of Example 1 was classed as active at 10 mg/kg per oral in rats (as compared to about 5 mg/kg for tolmetin).

[3] = test system: phenylquinone induced writhing; assay: phenylquinone induced writhing test for analgesic activity; assay type: in vivo; conditions: oral, mice; for ED50: Mus musculus
Description: a. When tested on a conventional phenylquinone induced writhing test for analgesic activity, the compound of Example 1 and tolmetin produced the following ED50 values when administered orally to mice: […]

[4] = in vivo
[5] = overt toxic effects during testing (Demonstration 2); assay type: in vivo
Description: (§1) When tested on a conventional cotton pellet induced granuloma test the results shown hereafter were obtained. In these tests hydrocortisone (HC) was used as a positive control.

[6] = test system: cotton pellet induced granuloma; assay: cotton pellet induced granuloma test; assay type: in vivo
Description: as §1

rats = assay: toxicity observations during testing in rats; assay type: in vivo; conditions: up to 100 mg/kg per day for 6 days

**Q.** Which anti-inflammatory activity [1] does the source give for `Cc1ccc(C(=O)c2ccc(CC(=O)O)n2C)cc1` [Tolmetin] here?
**A.** possess anti-inflammatory activity

**Q.** What about the “No. of Animals Showing Erosions” value (stomachs; 10 mg/kg oral) of the same compound?
**A.** 2 No. of Animals

**Q.** What about the “No. of Animals Showing Erosions” value (stomachs; 30 mg/kg oral) of the same compound?
**A.** 6 No. of Animals

**Q.** What about the “No. of Animals Showing Erosions” value (stomachs; 90 mg/kg oral) of the same compound?
**A.** 10 No. of Animals

**Q.** And the “gastric irritancy relative to the compound of Example 1” value (stomachs; oral, rats, "probably at least")?
**A.** at least 10 times

**Q.** And the minimal effective dose [2]?
**A.** ~5 mg/kg

**Q.** And the ED50 ([3]; Test A, read-out: ED50, Test A)?
**A.** 4.3 mg/kg

**Q.** What about the ED50 ([3]; Test B, read-out: ED50, Test B) of the same compound?
**A.** 2.3 mg/kg

**Q.** What about the gastric irritancy [4] of the same compound?
**A.** causes gastric irritancy in test animals at doses not greatly exceeding the therapeutic dose

**Q.** Which drug-induced lethalities ([5]; during testing) does the source give for `CC(=O)CCc1ccc(C(=O)c2ccc(Cl)cc2)n1C` [Example 3, 4-(1-Methyl-5-p-chlorobenzoyl-2-pyrryl)butan-2-one] here?
**A.** no drug-induced lethalities were observed

**Q.** And the overt toxic effects ([5]; during testing)?
**A.** not found to exhibit any overt toxic effects

**Q.** What about the body weight gain ([5]; in vivo) of the same compound?
**A.** no reduction in body weight gain was observed

**Q.** And the thymus weight ([5]; in vivo)?
**A.** no change in thymus weight was observed

**Q.** And the “Inhibition (cotton pellet granuloma)” value ([6]; 10 mg/kg)?
**A.** 42%

**Q.** What does the source list for `CC(=O)CCc1ccc(C(=O)c2ccc(C)cc2)n1C` [Example 1, 4-(1-Methyl-5-p-toluoyl-2-pyrryl)butan-2-one]?
**A.** No. of Animals Showing Erosions (stomachs; 30 mg/kg oral): 0 No. of Animals; No. of Animals Showing Erosions (stomachs; 90 mg/kg oral): 1 No. of Animals; No. of Animals Showing Erosions (stomachs; 270 mg/kg oral): 1 No. of Animals; minimal effective dose [2]: 10 mg/kg; drug-induced lethalities (rats): No drug-induced lethalities have been observed; ED50 ([3]; Test A, read-out: ED50, Test A): 6.7 mg/kg; ED50 ([3]; Test B, read-out: ED50, Test B): 5.3 mg/kg; analgesic potency relative to tolmetin ([3]; from ED50 values): about half as potent as tolmetin

**Q.** Which drug-induced lethalities ([5]; during testing) does the source give for `CC(=O)OC(C)CCc1ccc(C(=O)c2ccc(C)cc2)n1C` (centres unmarked) [Example 6, 2-Acetoxy-4-(1-methyl-5-p-toluoyl-2-pyrryl)butane] here?
**A.** no drug-induced lethalities were observed

**Q.** And the overt toxic effects ([5]; during testing)?
**A.** not found to exhibit any overt toxic effects

**Q.** What about the body weight gain ([5]; in vivo) of the same compound?
**A.** no reduction in body weight gain was observed

**Q.** And the thymus weight ([5]; in vivo)?
**A.** no change in thymus weight was observed

**Q.** What about the “Inhibition (cotton pellet granuloma)” value ([6]; 50 mg/kg) of the same compound?
**A.** 34%

**Q.** With `CC(=O)CCc1ccc(C(=O)c2cccs2)n1C` [Example 4, 4-(1-Methyl-5-thien-2'-oyl-2-pyrryl)butan-2-one] as the compound, how does the drug-induced lethalities ([5]; during testing) read?
**A.** no drug-induced lethalities were observed

**Q.** What about the body weight gain ([5]; in vivo) of the same compound?
**A.** no reduction in body weight gain was observed

**Q.** What about the overt toxic effects ([5]; in vivo) of the same compound?
**A.** not found to exhibit any overt toxic effects

**Q.** What about the thymus weight ([5]; in vivo) of the same compound?
**A.** no change in thymus weight was observed

**Q.** And the “Inhibition (cotton pellet granuloma)” value ([6]; 10 mg/kg)?
**A.** 24%

**Q.** Which “Inhibition (cotton pellet granuloma)” value ([6]; 10 mg/kg) does the source give for `C[C@]12CCC(=O)C=C1CC[C@@H]1[C@@H]2[C@@H](O)C[C@@]2(C)[C@H]1CC[C@]2(O)C(=O)CO` [HC, hydrocortisone, reference compound] here?
**A.** 43%

**Q.** For `Cc1ccc(C(=O)c2ccc(CCC3(C)OCCO3)n2C)cc1` [Example 7, 2-Methyl-2-[2-(1-methyl-5-p-toluoyl-2-pyrryl)ethyl]-1,3-dioxolane], which drug-induced lethalities ([5]; during testing) is on record?
**A.** no drug-induced lethalities were observed

**Q.** What about the overt toxic effects ([5]; during testing) of the same compound?
**A.** not found to exhibit any overt toxic effects

**Q.** What about the body weight gain ([5]; in vivo) of the same compound?
**A.** no reduction in body weight gain was observed

**Q.** And the thymus weight ([5]; in vivo)?
**A.** no change in thymus weight was observed

**Q.** And the “Inhibition (cotton pellet granuloma)” value ([6]; 50 mg/kg)?
**A.** 43%
